The compounds below were run against T1, viral kinase pUL-97 (Human cytomegalovirus, UniProt P16788) (assay: UL97 kinase assay on Immobilon plate). Details: inhibition of UL 97 kinase activity; class by IC50 / % inhibition at 10 μM or 100 μM; read-out: Activity Class [A, B, C].
T1 construct: The pUL-97 gene was cloned into a baculovirus vector; GST (glutathione S-transferase) (N); made in house; host or cells: Sf9 insect cells, baculovirus
Format: biochemical
Procedure, shortened: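 GST-pUL97 from baculovirus-infected Sf9 cells phosphorylated myelin basic protein with ATP (3 μM in the added assay buffer) and γ-[33P]ATP in Tris-HCl pH 7.5 buffer with MnCl2 and DTT. Reaction ran 1 h at 30 °C with graded compound concentrations and was stopped with EDTA. 33P incorporation was measured by scintillation after filter capture and phosphoric acid washes.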

T1 sequence (P16788 whole entry): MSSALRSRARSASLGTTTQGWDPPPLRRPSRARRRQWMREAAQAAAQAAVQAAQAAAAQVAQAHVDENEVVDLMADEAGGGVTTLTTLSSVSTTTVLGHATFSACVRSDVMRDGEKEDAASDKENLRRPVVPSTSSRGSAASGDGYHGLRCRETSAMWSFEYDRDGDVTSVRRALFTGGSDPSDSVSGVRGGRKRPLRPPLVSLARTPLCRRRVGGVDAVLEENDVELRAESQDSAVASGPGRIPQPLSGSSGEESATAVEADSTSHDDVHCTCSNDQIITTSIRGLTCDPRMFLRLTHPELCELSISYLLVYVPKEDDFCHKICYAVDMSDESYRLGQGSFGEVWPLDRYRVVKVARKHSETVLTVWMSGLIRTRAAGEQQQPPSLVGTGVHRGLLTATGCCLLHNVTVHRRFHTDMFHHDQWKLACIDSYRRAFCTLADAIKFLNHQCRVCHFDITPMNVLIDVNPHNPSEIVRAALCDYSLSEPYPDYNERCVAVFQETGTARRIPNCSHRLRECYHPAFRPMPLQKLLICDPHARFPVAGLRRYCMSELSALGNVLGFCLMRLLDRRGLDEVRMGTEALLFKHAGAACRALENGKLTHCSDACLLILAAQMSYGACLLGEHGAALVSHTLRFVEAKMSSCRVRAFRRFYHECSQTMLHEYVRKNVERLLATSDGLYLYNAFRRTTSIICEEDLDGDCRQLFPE

IC50 [µM] | SMILES
10 to 100 | COc1ccc(-c2cncc(N3CCC(c4ccccc4)CC3)n2)cc1F [compound 278, 2-(3-Fluoro-4-methoxy-phenyl)-6-(4-phenyl-piperidin-1-yl)-pyrazine]
10 to 100 | COc1ccc(OC)c(-c2cncc(N3CCN(c4ccc(F)cc4)CC3)n2)c1 [compound 234, 6′-(2,5-Dimethoxy-phenyl)-4-(4-fluoro-phenyl)-3,4,5,6-tetrahydro-2H-[1,2′]bipyrazinyl]
10 to 100 | Cc1nc(C)c(N2CCN(c3ccncc3)CC2)nc1-c1cc2ccccc2s1 [compound 373, 6′-Benzo[b]thiophen-2-yl-3′,5′-dimethyl-4-pyridin-4-yl-3,4,5,6-tetrahydro-2H-[1,2′]bipyrazinyl]
1 to 10 | Cc1cccc(N2CCN(c3cncc(-c4ccc(C(N)=O)cc4)n3)CC2C)c1 (centres unmarked) [compound 299, 4-(3-Methyl-4-m-tolyl-3,4,5,6-tetrahydro-2H-[1,2′]bipyrazinyl-6′-yl)-benzamide]
10 to 100 | COc1ccccc1N1CCN(c2cncc(-c3ccc(C)cc3)n2)CC1 [compound 241, 4-(2-Methoxy-phenyl)-6′-p-tolyl-3,4,5,6-tetrahydro-2H-[1,2′]bipyrazinyl]
10 to 100 | Cc1ccc(N2CCN(c3cncc(-c4cccc5ccccc45)n3)CC2)cc1 [compound 230, 6′-Naphthalen-1-yl-4-p-tolyl-3,4,5,6-tetrahydro-2H-[1,2′]bipyrazinyl]
1 to 10 | COc1cccc(N2CCN(c3cncc(-c4ccc(SC)cc4)n3)CC2)c1 [compound 369, 4-(3-Methoxy-phenyl)-6′-(4-methylsulfanyl-phenyl)-3,4,5,6-tetrahydro-2H-[1,2′]bipyrazinyl]
10 to 100 | CCOc1ccc(-c2cncc(N3CCN(c4ccc(C)cc4)CC3)n2)cc1 [compound 266, 6′-(4-Ethoxy-phenyl)-4-p-tolyl-3,4,5,6-tetrahydro-2H-[1,2′]bipyrazinyl]
10 to 100 | c1ccc2c(-c3cncc(N4CCN(c5cnccn5)CC4)n3)cccc2c1 [compound 331, 6-Naphthalen-1-yl-2′,3′,5′,6′-tetrahydro-[2,1′;4′,2″]terpyrazine]
10 to 100 | Fc1ccc(N2CCN(c3cncc(-c4ccoc4)n3)CC2)cc1 [compound 270, 4-(4-Fluoro-phenyl)-6′-furan-3-yl-3,4,5,6-tetrahydro-2H-[1,2′]bipyrazinyl]
10 to 100 | Cc1ccc(-c2cncc(N3CCN(c4ccccc4F)CC3)n2)cc1 [compound 248, 4-(2-Fluoro-phenyl)-6′-p-tolyl-3,4,5,6-tetrahydro-2H-[1,2′]bipyrazinyl]
1 to 10 | COc1ccc2cc(-c3cncc(N4CCN(c5ccc(C(C)=O)cc5)CC4)n3)ccc2c1 [compound 213, 1-{4-[6′-(6-Methoxy-naphthalen-2-yl)-2,3,5,6-tetrahydro-[1,2′]bipyrazinyl-4-yl]-phenyl}-ethanone]
10 to 100 | c1ccc(N2CCN(c3cncc(-c4cccc5ccccc45)n3)CC2)cc1 [compound 246, 6′-Naphthalen-1-yl-4-phenyl-3,4,5,6-tetrahydro-2H-[1,2′]bipyrazinyl]
1 to 10 | c1ccc(C2CCN(c3cncc(-c4ccsc4)n3)CC2)cc1 [compound 336, 2-(4-Phenyl-piperidin-1-yl)-6-thiophen-3-yl-pyrazine]
10 to 100 | CN(C)c1ccc(-c2cncc(N3CCN(c4cccc(C(F)(F)F)c4)CC3)n2)cc1 [compound 216, Dimethyl-{4-[4-(3-trifluoromethyl-phenyl)-3,4,5,6-tetrahydro-2H-[1,2′]bipyrazinyl-6′-yl]-phenyl}-amine]
10 to 100 | Fc1cccc(-c2cncc(N3CCN(c4ccccc4F)CC3)n2)c1 [compound 198, 4-(2-Fluoro-phenyl)-6′-(3-fluoro-phenyl)-3,4,5,6-tetrahydro-2H-[1,2′]bipyrazinyl]

Same assay, conditions: inhibition of UL 97 kinase activity; class by IC50 / % inhibition at 10 or 100 μM; read-out: Activity Class [A, B, C]

IC50 [µM] | SMILES
1 to 10 | Fc1ccc(-c2cncc(NCc3ccco3)n2)c(F)c1 [compound 48, [6-(2,4-Difluoro-phenyl)-pyrazin-2-yl]-furan-2-ylmethyl-amine]
10 to 100 | FC(F)(F)c1cccc(N2CCN(c3cncc(-c4csc5ccccc45)n3)CC2)c1 [compound 158, 6′-Benzo[b]thiophen-3-yl-4-(3-trifluoromethyl-phenyl)-3,4,5,6-tetrahydro-2H-[1,2′]bipyrazinyl]
1 to 10 | CC(=O)c1cccc(-c2cncc(N3CCN(c4ccncc4)CC3)n2)c1 [compound 132, 1-[3-(4-Pyridin-4-yl-3,4,5,6-tetrahydro-2H-[1,2′]bipyrazinyl-6′-yl)-phenyl]-ethanone]
10 to 100 | COc1ccc(N2CCN(c3cncc(-c4ccc(Oc5ccccc5)cc4)n3)CC2)cc1OC [compound 168, 4-(3,4-Dimethoxy-phenyl)-6′-(4-phenoxy-phenyl)-3,4,5-6-tetrahydro-2H-[1,2′]bipyrazinyl]
10 to 100 | Cc1ccc(-c2cncc(NCc3ccco3)n2)cc1C [compound 51, [6-(3,4-Dimethyl-phenyl)-pyrazin-2-yl]-furan-2-ylmethyl-amine]
1 to 10 | Fc1ccccc1N1CCN(c2cncc(-c3ccoc3)n2)CC1 [compound 126, 4-(2-Fluoro-phenyl)-6′-furan-3-yl-3,4,5,6-tetrahydro-2H-[1,2′]bipyrazinyl]
< 1 | CCCNc1cncc(-c2ccc(C(N)=O)cc2)n1 [compound 25, 4-(6-Propylamino-pyrazin-2-yl)-benzamide]
< 1 | CSc1ccc(-c2cncc(N3CCN(c4ccncc4)CC3)n2)cc1 [compound 66, 6′-(4-Methylsulfanyl-phenyl)-4-pyridin-4-yl-3,4,5,6-tetrahydro-2H-[1,2′]bipyrazinyl]
1 to 10 | COc1ccccc1N1CCN(c2cncc(-c3ccc(SC)cc3)n2)CC1 [compound 108, 4-(2-Methoxy-phenyl)-6′-(4-methylsulfanyl-phenyl)-3,4,5,6-tetrahydro-2H-[1,2′]bipyrazinyl]
1 to 10 | FC(F)(F)c1cccc(N2CCN(c3cncc(-c4cc5ccccc5s4)n3)CC2)c1 [compound 160, 6′-Benzo[b]thiophen-2-yl-4-(3-trifluoromethyl-phenyl)-3,4,5,6-tetrahydro-2H-[1,2′]bipyrazinyl]
10 to 100 | CN(C)c1ccc(-c2cncc(N3CCN(c4cccc(Cl)c4)CC3)n2)cc1 [compound 182, {4-[4-(3-Chloro-phenyl)-3,4,5,6-tetrahydro-2H-[1,2′]bipyrazinyl-6′-yl]-phenyl}-dimethyl-amine]
10 to 100 | Cc1ccc(N2CCN(c3cncc(-c4cc(C)cc(C)c4)n3)CC2)cc1 [compound 177, 6′-(3,5-Dimethyl-phenyl)-4-p-tolyl-3,4,5,6-tetrahydro-2H-[1,2′]bipyrazinyl]
< 1 | Oc1ccc(-c2cncc(NCc3cccs3)n2)cc1 [compound 30, 4-{6-[(Thiophen-2-ylmethyl)-amino]-pyrazin-2-yl}-phenol]
< 1 | c1ccc2cc(-c3cncc(N4CCN(CCN5CCCC5)CC4)n3)ccc2c1 [compound 17, 6′-Naphthalen-2-yl-4-(2-pyrrolidin-1-yl-ethyl)-3,4,5,6-tetrahydro-2H-[1,2′]bipyrazinyl]
1 to 10 | Cc1cc(C)cc(-c2cncc(N3CCN(c4ccncc4)CC3)n2)c1 [compound 165, 6′-(3,5-Dimethyl-phenyl)-4-pyridin-4-yl-3,4,5,6-tetrahydro-2H-[1,2′]bipyrazinyl]
1 to 10 | CSc1ccc(-c2cncc(N3CCN(c4ccccc4)CC3)n2)cc1 [compound 120, 6′-(4-Methylsulfanyl-phenyl)-4-phenyl-3,4,5,6-tetrahydro-2H-[1,2′]bipyrazinyl]
